In ChEMBL document CHEMBL1137249, “Cytostatic and antiviral 6-arylpurine ribonucleosides. Part 7: synthesis and evaluation of 6-substituted purine l-ribonucleosides” (Bioorg Med Chem Lett, 2006):
Activity calls are given as the source filed them. The rule behind the calls is not given here.

Key:
[1] = test system: Hepatitis C virus; assay: Incorporation by HCV con1 NS5Bdelta55 RNA polymerase upto 1mM; conditions: Hepatitis C virus subtype 1b
[2] = Cytotoxicity against Huh7 cells expressing HCV con1 replicon; assay type: cell-based, Huh-7; conditions: human
[3] = test system: Hepatitis C virus; assay: Inhibition of recombinant HCV con1 NS5Bdelta21 RNA polymerase; parameters: species or system Hepatitis C virus subtype 1b
[4] = Cytotoxicity against MT4 cells; assay type: cell-based; conditions: human
[5] = test system: Hepatitis C virus; assay: Antiviral activity against HCV con1 replicon by HCV subgenomic replicon assay; assay type: functional, organism-based, Hepacivirus hominis; conditions: genotype 1b con1

| Structure (SMILES) | Activity [1] | CC50 [2] [µM] | IC50 [3] [µM] | CC50 [4] [µM] | EC50 [5] [µM] |
| --- | --- | --- | --- | --- | --- |
| Nc1ncnc2c1ncn2[C@H]1O[C@@H](COP(=O)(O)O)[C@H](OP(=O)(O)O)[C@@H]1OP(=O)(O)O | inactive | – | – | – | – |
| OC[C@@H]1O[C@H](n2cnc3c(Cc4ccccc4)ncnc32)[C@@H](O)[C@H]1O | inactive | > 500 | > 100 | > 500 | 41 |
| OC[C@@H]1O[C@H](n2cnc3c(-c4ccccc4)ncnc32)[C@@H](O)[C@H]1O | – | > 50 | – | – | > 100 |
| O=P(O)(O)OC[C@@H]1O[C@H](n2cnc3c(Cc4ccccc4)ncnc32)[C@@H](OP(=O)(O)O)[C@H]1OP(=O)(O)O | inactive | – | – | – | – |
| OC[C@@H]1O[C@H](n2cnc3c(-c4ccsc4)ncnc32)[C@@H](O)[C@H]1O | – | > 50 | – | – | > 50 |
| CCc1ncnc2c1ncn2[C@H]1O[C@@H](CO)[C@H](O)[C@@H]1O | – | > 500 | – | – | > 500 |
| OCc1ncnc2c1ncn2[C@H]1O[C@@H](CO)[C@H](O)[C@@H]1O | – | > 500 | – | – | > 500 |
| COc1ccc(-c2ncnc3c2ncn3[C@H]2OC(CO)[C@H](O)[C@@H]2O)cc1 (single isomer, unassigned) | – | > 100 | – | – | > 50 |
| OC[C@H]1O[C@H](n2cnc3c(-c4cccs4)ncnc32)[C@@H](O)[C@H]1O | – | > 100 | – | > 100 | 56 |
| OC[C@@H]1O[C@H](n2cnc3c(-c4ccco4)ncnc32)[C@@H](O)[C@H]1O | – | > 100 | – | – | > 100 |
| Cc1ncnc2c1ncn2[C@H]1O[C@@H](CO)[C@H](O)[C@@H]1O | – | > 500 | – | – | > 500 |
